Source: ChEMBL document CHEMBL4665665, “4-Aryl Pyrrolidines as Novel Orally Efficacious Antimalarial Agents. Part 2: 2-Aryl-N-(4-arylpyrrolidin-3-yl)acetamides” (ACS Med Chem Lett, 2019)
Activity calls are given as the source filed them. The rule behind the calls is not given here.

Columns and labels:
Plasmodium falciparum [1] = test: Antimalarial activity against CQ-sensitive Plasmodium falciparum 3D7 incubated for 72 hrs by SYBR Green-1 dye based fluorescence assay; assay type: functional, organism-based
[2] = Ratio of IC50 for antimalarial activity against CQ-sensitive Plasmodium falciparum 3D7 incubated for 72 hrs by SYBR Green-1 dye based fluorescence assay to Plasma concentration in NIH mouse infected with Plasmodium chabaudi ASS at 10 mg/kg, po qd for 4 days starting from 4 hrs post-parasite inoculation and measured at 24 hrs post-dosing on day 4 by LC/MS analysis
[3] = Plasma concentration in NIH mouse infected with Plasmodium chabaudi ASS at 10 mg/kg, po qd for 4 days starting from 4 hrs post-parasite inoculation and measured at 24 hrs post-dosing on day 4 by LC/MS analysis; assay type: ADME, organism-based; conditions: dose 10 mg/kg/day, time 4 day
[4] = Plasma concentration in NIH mouse infected with Plasmodium chabaudi ASS at 10 mg/kg, po qd for 4 days starting from 4 hrs post-parasite inoculation and measured at 6 hrs post-dosing on day 4 by LC/MS analysis; assay type: ADME, organism-based; conditions: dose 10 mg/kg/day, time 4 day
[5] = Plasma concentration in NIH mouse infected with Plasmodium chabaudi ASS at 10 mg/kg, po qd for 4 days starting from 4 hrs post-parasite inoculation and measured at 1 hr post-dosing on day 4 by LC/MS analysis; assay type: ADME, organism-based; conditions: dose 10 mg/kg/day, time 4 day
[6] = Apparent volume of distribution in KM mouse at 2 mg/kg, iv administered as cassette dosing measured up to 24 hrs by LC/MS analysis; assay type: ADME, organism-based; conditions: in vivo, read-out: Vz
[7] = Half life in KM mouse at 2 mg/kg, iv administered as cassette dosing measured up to 24 hrs by LC/MS analysis; assay type: ADME, organism-based; conditions: in vivo
Cytochrome P450 2C19 = Cytochrome P450 2C19 (Homo sapiens, UniProt P33261); test: Inhibition of recombinant human CYP2C19 expressed in baculovirus infected insect cells using s-mephenytoin as substrate incubated for 30 mins in presence of NADPH-regenerating system by fluorescence based assay; assay type: ADME
Chain of Cytochrome P450 2C19 (P33261 whole entry): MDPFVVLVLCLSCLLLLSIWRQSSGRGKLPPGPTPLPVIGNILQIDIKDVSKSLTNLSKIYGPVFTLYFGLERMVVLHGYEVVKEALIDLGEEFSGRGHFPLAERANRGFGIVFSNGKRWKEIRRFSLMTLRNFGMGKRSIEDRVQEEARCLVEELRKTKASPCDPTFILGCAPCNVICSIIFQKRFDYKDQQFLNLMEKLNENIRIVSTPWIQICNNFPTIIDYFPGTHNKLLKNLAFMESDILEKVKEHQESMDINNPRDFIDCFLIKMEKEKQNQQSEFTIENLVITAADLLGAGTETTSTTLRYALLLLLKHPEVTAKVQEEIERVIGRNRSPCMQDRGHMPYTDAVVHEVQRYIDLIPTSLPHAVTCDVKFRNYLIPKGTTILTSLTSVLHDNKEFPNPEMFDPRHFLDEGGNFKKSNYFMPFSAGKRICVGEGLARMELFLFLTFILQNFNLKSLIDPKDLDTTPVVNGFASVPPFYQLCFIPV

[8] = Apparent clearance in KM mouse at 2 mg/kg, iv administered as cassette dosing measured up to 24 hrs by LC/MS analysis; assay type: ADME, organism-based; conditions: in vivo
Cytochrome P450 2C9 = Cytochrome P450 2C9 (Homo sapiens, UniProt P11712); test: Inhibition of recombinant human CYP2C9 expressed in baculovirus infected insect cells using tolbutamide as substrate incubated for 30 mins in presence of NADPH-regenerating system by fluorescence based assay; assay type: ADME
Chain of Cytochrome P450 2C9 (P11712 whole entry): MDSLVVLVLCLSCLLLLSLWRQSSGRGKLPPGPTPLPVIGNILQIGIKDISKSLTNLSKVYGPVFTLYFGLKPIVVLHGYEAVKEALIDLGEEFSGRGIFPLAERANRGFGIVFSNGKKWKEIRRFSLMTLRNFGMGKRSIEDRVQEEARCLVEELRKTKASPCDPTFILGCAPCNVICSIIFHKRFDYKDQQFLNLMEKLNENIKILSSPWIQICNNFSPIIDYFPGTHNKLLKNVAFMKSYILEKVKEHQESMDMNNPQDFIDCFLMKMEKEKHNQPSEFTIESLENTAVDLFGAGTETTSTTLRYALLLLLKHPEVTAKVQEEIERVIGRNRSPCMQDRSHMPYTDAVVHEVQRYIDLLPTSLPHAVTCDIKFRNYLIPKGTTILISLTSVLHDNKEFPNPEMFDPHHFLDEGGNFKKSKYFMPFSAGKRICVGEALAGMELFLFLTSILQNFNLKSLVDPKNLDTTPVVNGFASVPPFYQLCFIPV

Cytochrome P450 2D6 = Cytochrome P450 2D6 (Homo sapiens, UniProt P10635); test: Inhibition of recombinant human CYP2D6 expressed in baculovirus infected insect cells using dextromethorphan as substrate incubated for 30 mins in presence of NADPH-regenerating system by fluorescence based assay; assay type: ADME
Chain of Cytochrome P450 2D6 (P10635 whole entry): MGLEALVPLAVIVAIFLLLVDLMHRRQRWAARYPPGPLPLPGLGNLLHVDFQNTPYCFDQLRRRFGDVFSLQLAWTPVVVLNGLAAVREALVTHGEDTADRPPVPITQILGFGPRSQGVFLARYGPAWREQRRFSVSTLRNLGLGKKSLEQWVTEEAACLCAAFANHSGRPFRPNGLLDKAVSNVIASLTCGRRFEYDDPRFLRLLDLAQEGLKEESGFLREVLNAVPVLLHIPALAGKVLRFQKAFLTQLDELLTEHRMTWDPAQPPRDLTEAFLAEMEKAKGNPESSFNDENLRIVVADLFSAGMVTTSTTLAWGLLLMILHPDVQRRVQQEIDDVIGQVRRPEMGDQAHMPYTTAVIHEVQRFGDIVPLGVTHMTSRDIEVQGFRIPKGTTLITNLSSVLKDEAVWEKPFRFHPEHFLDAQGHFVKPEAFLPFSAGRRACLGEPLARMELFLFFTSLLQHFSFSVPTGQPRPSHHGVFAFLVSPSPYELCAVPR

Cytochrome P450 1A2 = biological target: T1, Cytochrome P450 1A2 (Homo sapiens, UniProt P05177); test: Inhibition of recombinant human CYP1A2 expressed in baculovirus infected insect cells using phenacetin as substrate incubated for 30 mins in presence of NADPH-regenerating system by fluorescence based assay; assay type: ADME
T1 sequence (P05177 whole entry): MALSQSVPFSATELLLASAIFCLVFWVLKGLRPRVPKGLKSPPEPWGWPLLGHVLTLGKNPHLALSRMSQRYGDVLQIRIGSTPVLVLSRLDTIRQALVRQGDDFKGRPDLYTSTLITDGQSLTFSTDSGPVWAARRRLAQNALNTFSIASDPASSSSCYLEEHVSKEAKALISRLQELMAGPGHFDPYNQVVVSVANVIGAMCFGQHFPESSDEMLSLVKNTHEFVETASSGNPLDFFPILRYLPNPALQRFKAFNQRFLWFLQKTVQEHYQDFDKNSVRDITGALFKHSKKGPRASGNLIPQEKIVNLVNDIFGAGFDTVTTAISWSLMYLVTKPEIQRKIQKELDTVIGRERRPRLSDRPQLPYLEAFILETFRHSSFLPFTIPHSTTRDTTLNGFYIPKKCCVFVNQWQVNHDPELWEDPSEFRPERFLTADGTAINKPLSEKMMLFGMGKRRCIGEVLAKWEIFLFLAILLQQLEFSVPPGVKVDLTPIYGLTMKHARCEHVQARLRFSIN

Cytochrome P450 3A4 = Cytochrome P450 3A4 (Homo sapiens, UniProt P08684); test: Inhibition of recombinant human CYP3A4 expressed in baculovirus infected insect cells using midazolam as substrate incubated for 30 mins in presence of NADPH-regenerating system by fluorescence based assay; assay type: ADME
Chain of Cytochrome P450 3A4 (P08684 whole entry): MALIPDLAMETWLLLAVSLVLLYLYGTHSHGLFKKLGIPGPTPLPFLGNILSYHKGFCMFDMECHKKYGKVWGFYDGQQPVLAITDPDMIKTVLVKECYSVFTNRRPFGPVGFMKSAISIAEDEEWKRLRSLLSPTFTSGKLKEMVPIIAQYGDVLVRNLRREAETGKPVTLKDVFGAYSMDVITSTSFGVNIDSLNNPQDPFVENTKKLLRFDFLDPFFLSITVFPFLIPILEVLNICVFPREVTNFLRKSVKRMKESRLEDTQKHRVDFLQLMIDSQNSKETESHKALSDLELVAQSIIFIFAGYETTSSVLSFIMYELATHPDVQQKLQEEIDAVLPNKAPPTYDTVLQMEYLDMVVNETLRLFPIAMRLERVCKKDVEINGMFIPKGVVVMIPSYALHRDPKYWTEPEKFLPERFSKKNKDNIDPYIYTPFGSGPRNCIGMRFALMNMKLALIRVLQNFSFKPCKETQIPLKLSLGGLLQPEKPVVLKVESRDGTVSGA

hERG = test: Selectivity ratio of IC50 for human ERG incubated for 2 hrs by fluorescence polarization assay to IC50 for CQ-sensitive Plasmodium falciparum 3D7 incubated for 72 hrs by SYBR Green-1 dye based fluorescence assay; assay type: toxicity; conditions: read-out: Ratio IC50
[9] = biological target: Beta-secretase 1 (Homo sapiens) (UniProt P56817); test: Inhibition of recombinant human BACE1 using Mca-SEVNLDAEFRK(Dnp)RR-NH2 fluorogenic peptide as substrate incubated for 60 mis by fluorescence based assay; conditions: time 60.0 min
Chain of Beta-secretase 1 (Homo sapiens) (P56817 whole entry): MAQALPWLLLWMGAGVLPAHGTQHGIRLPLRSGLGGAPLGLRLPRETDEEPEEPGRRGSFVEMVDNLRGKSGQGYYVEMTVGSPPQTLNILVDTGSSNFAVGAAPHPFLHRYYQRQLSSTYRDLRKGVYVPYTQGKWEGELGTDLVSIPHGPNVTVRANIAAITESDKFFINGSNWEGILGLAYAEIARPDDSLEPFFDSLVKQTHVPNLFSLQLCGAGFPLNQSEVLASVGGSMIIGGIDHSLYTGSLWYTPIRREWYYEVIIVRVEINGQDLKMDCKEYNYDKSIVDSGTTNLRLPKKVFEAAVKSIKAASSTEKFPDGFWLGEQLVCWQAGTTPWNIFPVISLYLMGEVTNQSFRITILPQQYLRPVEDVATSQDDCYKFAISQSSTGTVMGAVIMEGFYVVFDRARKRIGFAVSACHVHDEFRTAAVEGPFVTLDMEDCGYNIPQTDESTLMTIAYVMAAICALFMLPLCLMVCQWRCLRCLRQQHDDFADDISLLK

[10] = biological target: Voltage-gated inwardly rectifying potassium channel KCNH2 (Homo sapiens, UniProt Q12809); test: Displacement of Tracer Red from human ERG incubated for 2 hrs by fluorescence polarization assay
Chain of Voltage-gated inwardly rectifying potassium channel KCNH2 (Q12809 whole entry): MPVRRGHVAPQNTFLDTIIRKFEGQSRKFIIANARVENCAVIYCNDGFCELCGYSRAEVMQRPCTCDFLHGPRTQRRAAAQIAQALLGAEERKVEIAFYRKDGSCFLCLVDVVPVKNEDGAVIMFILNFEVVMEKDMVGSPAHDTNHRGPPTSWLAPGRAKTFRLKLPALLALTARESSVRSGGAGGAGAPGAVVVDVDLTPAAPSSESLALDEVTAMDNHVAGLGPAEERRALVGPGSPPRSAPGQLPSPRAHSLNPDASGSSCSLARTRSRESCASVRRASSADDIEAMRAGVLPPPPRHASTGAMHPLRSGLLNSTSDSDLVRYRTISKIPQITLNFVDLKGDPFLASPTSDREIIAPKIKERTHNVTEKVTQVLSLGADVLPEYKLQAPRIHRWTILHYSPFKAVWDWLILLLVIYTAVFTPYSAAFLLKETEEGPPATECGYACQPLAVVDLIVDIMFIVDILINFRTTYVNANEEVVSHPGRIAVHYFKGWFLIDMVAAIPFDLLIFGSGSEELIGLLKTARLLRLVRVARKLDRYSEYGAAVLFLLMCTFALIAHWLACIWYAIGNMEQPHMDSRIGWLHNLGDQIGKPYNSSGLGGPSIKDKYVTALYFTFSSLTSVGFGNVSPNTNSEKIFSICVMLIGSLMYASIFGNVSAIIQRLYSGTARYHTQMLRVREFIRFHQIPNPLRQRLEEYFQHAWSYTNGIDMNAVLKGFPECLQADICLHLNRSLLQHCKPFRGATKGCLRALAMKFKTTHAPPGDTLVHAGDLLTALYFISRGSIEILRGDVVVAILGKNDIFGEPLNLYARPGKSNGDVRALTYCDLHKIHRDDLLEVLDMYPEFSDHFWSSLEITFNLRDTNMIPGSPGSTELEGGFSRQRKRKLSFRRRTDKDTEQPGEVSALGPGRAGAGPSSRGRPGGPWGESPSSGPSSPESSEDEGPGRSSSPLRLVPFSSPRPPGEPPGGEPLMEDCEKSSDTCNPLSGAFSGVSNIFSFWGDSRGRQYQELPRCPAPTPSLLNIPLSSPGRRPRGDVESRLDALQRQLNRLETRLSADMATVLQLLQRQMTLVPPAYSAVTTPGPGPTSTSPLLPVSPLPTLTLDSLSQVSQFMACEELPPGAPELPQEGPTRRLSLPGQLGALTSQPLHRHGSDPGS

Plasmodium falciparum [11] = test: Inhibition of Plasmodium falciparum plasmepsin 4 using PM-2 peptide substrate incubated for 60 mis by fluorescence based assay; conditions: time 60.0 min
[12] = biological target: Plasmepsin II (Plasmodium falciparum) (UniProt P46925); test: Inhibition of Plasmodium falciparum plasmepsin 2 using PM-2 peptide substrate incubated for 60 mis by fluorescence based assay; conditions: time 60.0 min
Chain of Plasmepsin II (Plasmodium falciparum) (P46925 125-453 limits assumed): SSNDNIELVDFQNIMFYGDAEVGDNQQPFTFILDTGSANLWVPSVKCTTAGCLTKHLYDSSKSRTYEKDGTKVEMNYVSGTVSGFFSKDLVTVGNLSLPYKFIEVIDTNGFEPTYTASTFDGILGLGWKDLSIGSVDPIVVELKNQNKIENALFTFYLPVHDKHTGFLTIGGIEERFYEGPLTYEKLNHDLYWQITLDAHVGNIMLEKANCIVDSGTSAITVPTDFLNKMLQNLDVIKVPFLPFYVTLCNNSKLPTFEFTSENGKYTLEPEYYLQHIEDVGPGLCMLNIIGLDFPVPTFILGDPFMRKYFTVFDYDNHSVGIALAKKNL

Plasmodium falciparum [13] = test: Antimalarial activity against multidrug resistant Plasmodium falciparum Dd2 incubated for 72 hrs by SYBR Green-1 dye based fluorescence assay; assay type: functional, organism-based; conditions: Dd2, 72 h
Plasmodium chabaudi = test: Antimalarial activity against Plasmodium chabaudi ASS infected in NIH mouse assessed as inhibition of parasitemia at 10 mg/kg, po qd for 4 days starting from 4 hrs post-parasite inoculation and measured at 24 hrs after last-drug treatment by Peter's 4-day suppressive test relative to control; assay type: functional; conditions: 96 h
HepG2 = test: Cytotoxicity against human HepG2 cells assessed as cell viability at 5 uM incubated for 72 hrs by PrestoBlue cell viability reagent based assay; conditions: hepg2, 72 h
[14] = Plasmodium falciparum, 3D7, 72 h

## CN(C)c1ccc(CC(=O)N[C@H]2CNC[C@@H]2c2ccc(C(F)(F)F)nc2)cc1 (racemic)
Plasmodium falciparum [1]; [14]
  IC50: 0.21 µM

## CN(C)c1ccc(CC(=O)N[C@@H]2CNC[C@H]2c2cc3cc(F)ccc3o2)cc1
Plasmodium falciparum [1]; [14]
  IC50: 0.27 µM

## CN(C)c1ccc(CC(=O)N[C@@H]2CNC[C@H]2c2ccc(S(F)(F)(F)(F)F)cc2)cc1
[2]
  Ratio: 6
[3]
  concentration at 96 h: 0.0149 µM
[4]
  concentration at 96 h: 0.119 µM
[5]
  concentration at 96 h: 0.129 µM
[6]
  Vd: 6.2 L/kg
[7]
  half-life: 7 h
Cytochrome P450 2C19
  IC50: 29.4 µM
[8]
  clearance: 0.63 L/h/kg
Cytochrome P450 2C9
  IC50: 36.6 µM
Cytochrome P450 2D6
  IC50: 90 µM
Cytochrome P450 1A2
  IC50: > 100 µM
Cytochrome P450 3A4
  IC50: 0.159 µM
hERG
  selectivity ratio at 2 h: 28
[9]
  inhibition: inactive
[10]
  IC50: 2.57 µM
Plasmodium falciparum [11]
  inhibition: inactive
[12]
  inhibition: inactive
Plasmodium falciparum [1]; [14]
  IC50: 0.091 µM
Plasmodium falciparum [13]
  IC50: 0.089 µM
Plasmodium chabaudi
  inhibition in vivo at 10 mg/kg/day: 65.3%
HepG2
  Activity: Non-Toxic

## Cc1ccc(CC(=O)N[C@H]2CNC[C@@H]2c2ccc(C(F)(F)F)cc2)cn1 (racemic)
Plasmodium falciparum [1]; [14]
  IC50: 3.7 µM

## Cc1cccc(CC(=O)N[C@H]2CNC[C@@H]2c2ccc(C(F)(F)F)cc2)c1 (racemic)
Plasmodium falciparum [1]; [14]
  IC50: 0.37 µM

## CN(C)c1ccc(CC(=O)N[C@@H]2CNC[C@H]2c2cccc(S(F)(F)(F)(F)F)c2)cc1
Plasmodium falciparum [1]; [14]
  IC50: 0.059 µM

## CC(C)c1ccc(CC(=O)N[C@H]2CNC[C@@H]2c2ccc(C(F)(F)F)cc2)cc1 (racemic)
Plasmodium falciparum [1]; [14]
  IC50: 0.6 µM

## CN(C)c1ccc(CC(=O)N[C@@H]2CNC[C@H]2c2ccc(Br)cc2)cc1
Plasmodium falciparum [1]; [14]
  IC50: 0.14 µM

## CN(C)c1ccc(CC(=O)N[C@H]2CNC[C@@H]2c2ccc(C(F)(F)F)cc2)cc1 (racemic)
Plasmodium falciparum [1]
  IC50: 0.096 µM

## CN(C)c1ccc(CC(=O)N[C@H]2CNC[C@@H]2c2ccc(C(C)(F)F)cc2)cc1
Plasmodium falciparum [1]; [14]
  IC50: 0.44 µM

## COc1cccc(CC(=O)N[C@H]2CNC[C@@H]2c2ccc(C(F)(F)F)cc2)c1 (racemic)
Plasmodium falciparum [1]; [14]
  IC50: 0.76 µM

## CN(C)c1ccc(CC(=O)N[C@@H]2CNC[C@H]2c2ccc(C(C)(C)C)cc2)cc1
Plasmodium falciparum [1]; [14]
  IC50: 0.12 µM

## CN(C)c1ccc(CC(=O)N[C@@H]2CNC[C@H]2c2ccc(C(F)(F)F)c(Cl)c2)cc1
Plasmodium falciparum [1]; [14]
  IC50: 0.12 µM

## Nc1ccc(CC(=O)N[C@H]2CNC[C@@H]2c2ccc(C(F)(F)F)cc2)cc1 (racemic)
Plasmodium falciparum [1]; [14]
  IC50: 2.9 µM

## CN(C)c1ccc(CNC(=O)[C@H]2CNC[C@@H]2c2ccc(C(F)(F)F)nc2)cc1 (racemic)
Plasmodium falciparum [1]; [14]
  IC50: 0.25 µM

## COc1ccc(CC(=O)N[C@H]2CNC[C@@H]2c2ccc(C(F)(F)F)cc2)nc1 (racemic)
Plasmodium falciparum [1]; [14]
  IC50: 3.6 µM

## CN(C)c1ccc(CC(=O)N[C@@H]2CNC[C@H]2c2ccc(C(F)(F)C(F)(F)F)nc2)cc1
Plasmodium falciparum [1]; [14]
  IC50: 0.063 µM

## CCN(CC)CCCC(C)Nc1ccnc2cc(Cl)ccc12 (stereo not drawn) [CHLOROQUINE]
[3]
  concentration at 96 h: 0.0686 µM
[4]
  concentration at 96 h: 0.0834 µM
[5]
  concentration at 96 h: 0.0807 µM
Plasmodium chabaudi
  inhibition in vivo at 10 mg/kg/day: 99.9%

## C[C@@H]1CC[C@H]2[C@@H](C)C(=O)O[C@@H]3O[C@@]4(C)CC[C@@H]1[C@]32OO4 [ARTEMISININ]
Plasmodium falciparum [1]; [14]
  IC50: 0.033 µM

## COc1ccc(CC(=O)N[C@H]2CNC[C@@H]2c2ccc(C(F)(F)F)cc2)cc1 (racemic)
Plasmodium falciparum [1]; [14]
  IC50: 0.35 µM
